Experimental data from US20010023832A1, “Chemical sensor and use thereof” (priority 1995, published 2001).

Target: the enzyme urea (Canavalia ensiformis, UniProt P07374)
Test: Effect of potential interfering substances on the pH response of the urea(bio)sensor
Format: biochemical
Excerpt: Furthermore, the effect of potential interfering substances, such as glucose, acetone, citric acid and sodium acetate, was investigated, see Table 2.

Chain of the enzyme urea (P07374 whole entry, looked up): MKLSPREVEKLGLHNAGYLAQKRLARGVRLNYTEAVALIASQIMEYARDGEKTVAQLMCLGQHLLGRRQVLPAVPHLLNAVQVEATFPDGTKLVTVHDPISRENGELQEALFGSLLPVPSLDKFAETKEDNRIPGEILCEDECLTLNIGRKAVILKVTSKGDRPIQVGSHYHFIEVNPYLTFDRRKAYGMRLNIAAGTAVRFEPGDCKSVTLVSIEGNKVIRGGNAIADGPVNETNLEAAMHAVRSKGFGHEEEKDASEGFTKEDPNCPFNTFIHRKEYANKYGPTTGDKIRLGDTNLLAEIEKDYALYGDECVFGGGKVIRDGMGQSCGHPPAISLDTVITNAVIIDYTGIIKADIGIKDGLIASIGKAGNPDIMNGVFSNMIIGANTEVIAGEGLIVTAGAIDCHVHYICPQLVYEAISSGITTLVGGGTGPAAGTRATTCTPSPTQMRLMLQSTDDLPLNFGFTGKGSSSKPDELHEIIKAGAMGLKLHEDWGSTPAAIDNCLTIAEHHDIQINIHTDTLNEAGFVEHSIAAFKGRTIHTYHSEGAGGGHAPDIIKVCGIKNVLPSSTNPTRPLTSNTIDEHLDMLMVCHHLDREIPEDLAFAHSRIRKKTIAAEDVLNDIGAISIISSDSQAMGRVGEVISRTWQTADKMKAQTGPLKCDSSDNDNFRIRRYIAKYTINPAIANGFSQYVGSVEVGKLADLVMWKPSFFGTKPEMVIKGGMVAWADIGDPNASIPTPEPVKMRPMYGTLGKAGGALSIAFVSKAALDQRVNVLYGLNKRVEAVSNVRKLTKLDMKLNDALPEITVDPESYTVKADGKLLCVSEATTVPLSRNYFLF

Structure (SMILES)	Change in ΔpH (%) (substance 1 mM in sample solution, no stabiliser)	Change in ΔpH (%) (substance 1 mM, value in parentheses, stabiliser (for instance EDTA) injected together with the enzyme)	Change in ΔpH (%) (substance 2 mM in sample solution, no stabiliser)	Change in ΔpH (%) (substance 2 mM, value in parentheses, stabiliser (for instance EDTA) injected together with the enzyme)	Change in ΔpH (%) (substance 0.6 mM in sample solution, urea(bio)sensor, pH electrode)
O=S(=O)([O-])[O-].[Cu+2] [Copper sulphate]	−38	0	−65	0	–
CC(=O)[O-].[Na+] [Sodium acetate]	–	–	–	–	0
